Test results published in patent US6133443A, “Optically active 1,4-dihydropyridine derivatives and process for the preparation thereof” (Mercian Corporation, priority 1996, dated 2000).

Legend:
physchem = conditions: deionized water
Procedure: (§1) The measurements were performed by mixing deionized water with a compound to be tested, subsequently stirring for 3 minutes using a electromagnetic vibrating stirrer, and determining a critical value (solubility) based on presence or absence of insoluble matter.

[1] = Test for solubility in water (deionized water, stirring 3 minutes, presence or absence of insoluble matter)
Procedure: as §1

SMILES	solubility at 0.05 h (physchem) [µg/mL]	solubility at 0.05 h [1] [µg/mL]
COC(=O)C1=C(C)NC(C)=C(C(=O)OCCC[n+]2ccncc2)[C@H]1c1cccc([N+](=O)[O-])c1 [Example 3, 3-pyraziniumpropyl (4S)-1,4-dihydro-2,6-dimethyl-5-methoxycarbonyl-4-(3-nitrophenyl)-pyridine-3-carboxylate iodide]	≥ 1000	–
COC(=O)C1=C(C)NC(C)=C(C(=O)OCCC[n+]2ccc(N(C)C)cc2)[C@H]1c1cccc([N+](=O)[O-])c1 [Example 9, 3-(4-dimethylaminopyridinium)propyl (4S)-1,4-dihydro-2,6-dimethyl-5-methoxycarbonyl-4-(3-nitrophenyl)-pyridine-3-carboxylate iodide]	–	≥ 1000
COC(=O)C1=C(C)NC(C)=C(C(=O)OCCC[n+]2ccccn2)[C@H]1c1cccc([N+](=O)[O-])c1 [Example 5, 3-pyridaziniumpropyl (4S)-1,4-dihydro-2,6-dimethyl-5-methoxycarbonyl-4-(3-nitrophenyl)-pyridine-3-carboxylate iodide]	≥ 1000	–
COC(=O)C1=C(C)NC(C)=C(C(=O)OCCC[n+]2cccc(C(=O)OC)c2)[C@H]1c1cccc([N+](=O)[O-])c1 [Example 7, 3-(3-methoxycarbonylpyridinium)propyl (4S)-1,4-dihydro-2,6-dimethyl-5-methoxycarbonyl-4-(3-nitrophenyl)-pyridine-3-carboxylate iodide]	–	≥ 1000
COC(=O)C1=C(C)NC(C)=C(C(=O)OCc2cccc[n+]2C)[C@H]1c1cccc([N+](=O)[O-])c1 [Example 11, 3-(1-methyl-2-pyridinium)methyl (4S)-1,4-dihydro-2,6-dimethyl-5-methoxycarbonyl-4-(3-nitrophenyl)-pyridine-3-carboxylate iodide]	–	≥ 1000
COC(=O)C1=C(C)NC(C)=C(C(=O)OCCC[n+]2cccc(C(N)=O)c2)[C@H]1c1cccc([N+](=O)[O-])c1 [Example 10, 3-(3-carbamoylpyridinium)propyl (4S)-1,4-dihydro-2,6-dimethyl-5-methoxycarbonyl-4-(3-nitrophenyl)-pyridine-3-carboxylate iodide]	–	≥ 1000
COC(=O)C1=C(C)NC(C)=C(C(=O)OCCCc2ccc[n+](C)c2)[C@H]1c1cccc([N+](=O)[O-])c1 [Example 12, 3-(1-methyl-3-pyridinium)propyl (4S)-1,4-dihydro-2,6-dimethyl-5-methoxycarbonyl-4-(3-nitrophenyl)-pyridine-3-carboxylate iodide]	–	≥ 1000
COC(=O)C1=C(C)NC(C)=C(C(=O)OCCC[n+]2ccsc2)[C@H]1c1cccc([N+](=O)[O-])c1 [Example 4, 3-thiazoliumpropyl (4S)-1,4-dihydro-2,6-dimethyl-5-methoxycarbonyl-4-(3-nitrophenyl)-pyridine-3-carboxylate iodide]	≥ 1000	–
COC(=O)C1=C(C)NC(C)=C(C(=O)OCCC[n+]2ccccc2)[C@H]1c1cccc([N+](=O)[O-])c1 [Example 2, 3-pyridiniumpropyl (4S)-1,4-dihydro-2,6-dimethyl-5-methoxycarbonyl-4-(3-nitrophenyl)-pyridine-3-carboxylate iodide]	≥ 1000	–
COC(=O)C1=C(C)NC(C)=C(C(=O)OCCC[n+]2cccc(C#N)c2)[C@H]1c1cccc([N+](=O)[O-])c1 [Example 8, 3-(3-cyanopyridinium)propyl (4S)-1,4-dihydro-2,6-dimethyl-5-methoxycarbonyl-4-(3-nitrophenyl)-pyridine-3-carboxylate iodide]	–	≥ 1000
COC(=O)C1=C(C)NC(C)=C(C(=O)OCCC[n+]2ccn(C)c2)[C@H]1c1cccc([N+](=O)[O-])c1 [Example 6, 3-(1-methylimidazolium)propyl (4S)-1,4-dihydro-2,6-dimethyl-5-methoxycarbonyl-4-(3-nitrophenyl)-pyridine-3-carboxylate iodide]	–	≥ 1000
